According to patent publication US4786755A, “Diphenic acid monoamides” (Warner-Lambert Company, priority 1986, dated 1988):
Like-named read-outs stand apart in the source and are kept apart here.

Tests used:
leukotriene receptor = target: T1, leukotriene receptor (Cavia porcellus, UniProt Q2NNR5); assay: Binding of ^3 H-Leukotriene D4 to Guinea Pig Lung Membranes (RBL); settings: ^3 H-LTD4, guinea pig lung membranes; read-out: IC50 RBL1
T1 construct: 20 mg original tissue wet weight of guinea pig lung membranes; tissue Kuiper Rabbit Farm, Gary, IN (animals); host or cells: guinea pig lung, crude membranes
T1 sequence (Q2NNR5 1-340): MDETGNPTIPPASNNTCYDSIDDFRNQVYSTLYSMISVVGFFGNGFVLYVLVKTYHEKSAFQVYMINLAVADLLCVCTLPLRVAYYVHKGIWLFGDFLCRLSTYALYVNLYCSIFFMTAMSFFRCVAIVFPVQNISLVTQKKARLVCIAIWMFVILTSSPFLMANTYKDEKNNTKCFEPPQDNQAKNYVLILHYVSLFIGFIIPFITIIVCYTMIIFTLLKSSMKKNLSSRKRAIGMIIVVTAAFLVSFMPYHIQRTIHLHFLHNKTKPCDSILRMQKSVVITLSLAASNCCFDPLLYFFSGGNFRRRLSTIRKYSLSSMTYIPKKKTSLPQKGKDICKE
Experimental: Additionally, the activity, of the compounds having the Formula I of the present invention is determined by the well known leukotriene receptor binding assay that is described by R. F. Bruns, W. J. Thomsen and T. A. Pugsley in Life Sciences, 33, 645 (1983) or the Herxheimer in vivo antiallergy test described in H. Herxheimer, J. Physiol. (London), Vol. 177, p. 251 (1952).
Binding of ^3 H-Leukotriene D4 to Guinea Pig Lung Membranes (RBL)
[14,15-^3 H]leukotriene D4 (^3 H-LTD4) (25 Ci/mmol and 40 Ci/mmol) is purchased from New England Nuclear. Unlabeled LTC4 is a gift of Ono Pharmaceuticals (Japan). LTC4, LTD4, and LTE4 are purchased as methyl esters from Paesel GmbH (Frankfurt, W. Germany). Concentrations of the Paesel leukotrienes are calculated from their absorbance at 280 nm. Leukotriene esters are saponified overnight under N2 in 3.3% potassium carbonate at room temperature. Tritiated leukotrienes are stored as received from New England Nuclear at -20° C. Ono LTC4 (5 μg/ml is stored at -60° C. in phosphate buffer pH 6.8. Saponified Paesel leukotrienes are stored at -60° C. in 3.3% potassium carbonate (pH 9.0-9.5). Aliquots of leukotrienes are taken from stock solutions immediately after thawing, after which the stock solutions are immediately refrozen. 2-Amino-2-(hydroxymethyl)-1,3-propanediol (Tris) is Sigma pH 7.7 pre-set crystals, and dimethylsulfoxide is Aldrich Gold Label.
Preparation of crude lung membranes
Two pairs of lungs (1.3 g) from freshly sacrificed 300 g male guinea pigs (older animals gave substantially lower binding) from Kuiper Rabbit Farm, Gary, IN are disrupted with a Polytron PT 10 (setting 4) for 30 seconds in 20 ml ice-cold 50 mM Tris adjusted with HCl to pH 7.7 at 25° C. (Tris buffer), filtered through a single layer of gauze to remove connective tissue, and centrifuged at 50,000 xg for ten min. The pellet is resuspended by homogenization with a Polytron in 20 ml Tris buffer, centrifuged at 50,000 xg for ten min., resuspended, incubated at 37° C. for 30 minutes, and centrifuged again. The final pellet is resuspended in Tris buffer and either used fresh or stored at -70° C.
All incubations are in triplicate for 60 minutes at 25° C. in 12×75 mm polystyrene tubes containing 1 ml Tris buffer with 20 mg original tissue wet weight of guinea pig lung membranes, 0.2 nM ^3 H-LTD4 (6,000-11,000 cpm), 10 mM MgCl2, and 1% dimethylsulfoxide. Leukotrienes are diluted in Tris buffer. All other test compounds are dissolved at 10 mM in dimethylsulfoxide on the same day as the experiment, and diluted in dimethylsulfoxide to 100× the final incubation concentration. Control incubations receive an equal volume (10 μl) of dimethylsulfoxide; the resulting concentration of dimethylsulfoxide had no effect on binding. ^3 H-LTD4 is diluted to 2 nM in Tris buffer. The membrane suspension (20 mg/0.89 ml) contains sufficient MgCl2 to give 10 mM final concentration in the incubation. […] All additions are performed at 0° C. Immediately after the last addition, the incubation is initiated by agitating the rack of tubes on a vortex mixer and warming to 25° C. in a water bath. Tubes are vortexed at least once more during the incubation to ensure that the membranes remained suspended. Incubations are terminated after 60 minutes by filtering under reduced pressure through 25 mm Whatman GF/B filters followed by rapid washing three times with 4 ml of ice-cold Tris buffer. Filters are added to scintillation vials with 8 ml Formula 947 (New England Nuclear), left overnight, shaken, and the radioactivity counted in a scintillation counter (efficiency 40%). Nonspecific binding, defined as binding of ^3 H-LTD4 in the presence of 100 nM LTC4, is 300-500 cpm for all lots of ^3 H-LTD4. Binding to the filters in the absence of tissue is about 100 cpm, and is not affected by unlabeled LTC4. Specific binding, defined as total binding minus nonspecific binding, varied considerably from lot to lot of ^3 H-LTD4. […]

Human Basophils = assay: Histamine Release from Human Basophils (HHB); format: cell-based; settings: Homo sapiens, 33 μM cpd.
Source text: Histamine Release from Human Basophils (HHB) Procedure for Quantitating Active Histamine Release, and its Inhibition by Drugs, from Basophils of Human Blood Using an Automated Fluorometric Histamine Assay
Mediator (histamine) release from human blood basophils is an assay which provides a model for evaluating potential antiallergy (mediator release inhibitors) compounds.
Blood from allergic donors is obtained from volunteers through the Community Research Clinic. The leukocytes are removed after Hespan® sedimentation, washed and concentrated using calcium and magnesium free Hepes buffered saline and resuspended in Hepes Hepes buffered saline with 1 mM calcium and magnesium added back. The cells are incubated briefly at room temperature with either buffer alone (for measuring spontaneous release and challenge agent stimulated release) 6% perchloric acid (for measuring total available histamine in the cells) or drug at various concentrations. The cells are then either treated with buffer alone (to measure control spontaneous and drug effect on spontaneous release) or appropriate challenge agent (e.g., anti-IgE, antigen) mixed and incubated for 45 minutes at 37° C. in a shaking water bath. The reaction is stopped by centrifugation and the supernate is poured into autoanalyzer sample cups and samples assayed for assayed for histamine content using an automated fluorometric assay. By comparing the histamine release of drug-treated cells and the challenge agent controls, drug inhibition of mediator (histamine) release can be evaluated.
Histamine release is induced by (1) an aqueous antigen extract (short rageweed or house dust), or (2) anti-IgE antisera. Whole human blood is obtained from volunteers through the Community Research Clinic (CRC-92). Volunteers are chosen on the basis of adequate histamine release induced by antigen, or antiIgE antisera challenge. Leukocytes are incubated in vitro with the challenge agents at several concentrations. Dose-response curves for each volunteer, using each challenge agent, are generated. Test compounds are evaluated for inhibition of a near maximal response to one or more challenge agents. By including appropriate controls, it is possble to measure the effect of the test compound, at various concentrations, in several ways: (1) the effect of the compound on histamine release for each challenge agent; (2) the effect of the test compound on spontaneous release of histamine in the absence of the challenge agent (buffer alone); and (3) the effect of the test compound on the histamine assay.
Histamine is assayed using an automated continuous flow system which quantitates samples of 0.4 ml or more in volume, and concentrations of approximately 0.5 ng/ml or more. The rate of analysis is 30 samples/hour.
Methods of preparing leukocytes for this assay are described by Theuson, et al, J. of Immunology, Vol. 123, p. 426 (1979).
Samples are run in triplicate, using either 1.5 ml polypropylene capped reaction tubes, or 5.0 ml plastic uncapped tubes. Test compounds and challenge agents are prepared in HACM buffer, as described above. Fixed volume pipettes are used.
Test compound or vehicle control is added to three reaction tubes at 1.5×the final desired concentration (i.e., 400 μl of test compound per 600 μl total reaction volume). One hundred μl of cells is added to each tube and the mixture is incubated for eight minutes at room temperature, and two minutes at 37° C. before antigen or other stimulus challenge. One hundred μl of the challenge agent at 6× the final concentration is then added, and the final mixture is incubated at 37° C. for 45 minutes in a shaking water bath. This ensures that the cell preparation is constantly in suspension. The reaction is stopped by centrifugation at 2000 RPM for three minutes at 4° C. The supernate (.perspectiveto.500 μl) is poured into 2.0 ml autoanalyzer beakers and assayed for histamine by the fluorometric method. […]

[1] = test system: Isolated Guinea Pig Lung Parenchyma; assay: Smooth Muscle Receptor Agonism-Antagonism Activity Evaluations In Vitro (IVAS), LTC4-induced contraction; format: cell-based
Source text: Smooth Muscle Receptor Agonism-Antagonism Activity Evaluations In Vitro (IVAS) Isolated Guinea Pig Lung Parenchyma
The potency of a test compound for receptor stimulation or antagonism, for example, can easily be determined since the concentration of the compound to which the muscle cell, or specialized responsive area on this cell, is exposed can be easily controlled and correlated with the recorded activity of muscle contraction or relaxation.
The procedures described herein are specifically concerned with the definition of a test drug action on isolated lung strips. Drug action is characterized either by an action per se on the tissues or by interaction with known smooth muscle receptor stimulants or antagonists.
Usually, the tests will be used to evaluate the ability of a test compound to antagonize the contraction induced by standard agonists in this case LTC4. A relative potency is derived by comparison with one of the standard blocking drugs. In caution, relative potencies of test compounds to known standards are valid only if full dose response curves are generated and the compound compared generate parallel dose/response curves with common maxima. Appropriate "within-trial" comparisons are also necessary.
Molecular antagonists compete with the agonist for the receptor. […] A physiological antagonist produces a response by action on a different receptor that causes an effect in opposition to the agonism.
A permanent isolated bath system is used which facilitates the vertical suspension of a segment of tissue in a small volume of a specific nutritive buffer. Frittered glass terminals provide dispersed bubbles of 95% oxygen and 5% carbon dioxide at the base of the individual tissue baths and the buffer reservoir. All baths and the reservoir are double-jacketed and water at 37° C. is circulated through the jacket of the baths to provide stable temperature regulation. The baths are arranged so that fresh solution from the reservoir passes through a jacketed glass coil to the base of the bath. The bubbling gas stirs the bath solution. During equilibration, fresh solution enters and excess solution is allowed to overflow. Unless a particular drug is required throughout the experiment and it is incorporated in the buffer, individual drugs are introduced directly into the bath by long hypodermic needles to the base of the bath without disturbing the tissue. Drugs are removed by rapidly draining the tissue bath from the bottom and refilling. Tissues are washed a minimum of six times. The emptying and refilling sequence takes only five seconds.
The contraction and relaxation of the smooth muscle preparation can be recorded either isotonically (change in length) or isometrically (change in tension). Isometric transducers are more sensitive and proportional. Isometric contractions are recorded electronically using Grass FT 0.03C force displacement transducers and Beckman Dynagraph recorders. The tissue is suspended vertically with one end of the segment anchored to the bottom of the bath and the other end attached to the mechanical electrical transducer muscle level. The electrical output of this transducer moves a pen on a moving chart in proportion to the force displacement.
Lung tissue is obtained from normal male guinea pigs. The heart and lungs are removed as a unit, placed in buffer, and the lungs are perfused with buffer by the spontaneously beating heart for several minutes.

[2] = Tripeptide challenge, read-out: HHB (Tripeptide), percent inhibition of histamine release
[3] = antigen challenge, read-out: HHB (antigen), percent inhibition of histamine release

| Compound | IC50 (leukotriene receptor) | inhibition at 33 µM (Human Basophils; [2]) | inhibition at 33 µM (Human Basophils; [3]) | response (r1), of maximum ([1]; 1 ng/ml LTC4, isolated lung strip) | contraction, of maximum ([1]; 3×10^-5 M, isolated guinea pig lung strip) | minimal effective concentration ([1]; Cavia porcellus, isolated guinea pig lung strip, read-out: threshold dose (contraction of lung strip)) |
| --- | --- | --- | --- | --- | --- | --- |
| CCCCC/C=C\C\C=C/C=C/C=C/[C@@H](SC[C@H](NC(=O)CC[C@H](N)C(=O)O)C(=O)NCC(=O)O)[C@@H](O)CCCC(=O)O [LTC4, leukotriene C4] |  |  |  | 15-20% |  |  |
| O=C(O)c1ccccc1-c1ccccc1C(=O)Nc1ccc(CCc2ccc(C(F)(F)F)cc2)cc1 [Example 10] | 9.7 µM | 74% | 62% |  |  |  |
| NCCc1c[nH]cn1 [histamine] |  |  |  |  | approximately 75% | ~3 µM |

Further lines, with some results ahead:

| IC50 (leukotriene receptor) | Compound | inhibition at 33 µM (Human Basophils; [2]) | inhibition at 33 µM (Human Basophils; [3]) | response (r1), of maximum ([1]; 1 ng/ml LTC4, isolated lung strip) | contraction, of maximum ([1]; 3×10^-5 M, isolated guinea pig lung strip) | minimal effective concentration ([1]; Cavia porcellus, isolated guinea pig lung strip, read-out: threshold dose (contraction of lung strip)) |
| --- | --- | --- | --- | --- | --- | --- |
| 10.5 µM | O=C(O)c1ccccc1-c1ccccc1C(=O)Nc1cccc(Cc2ccc(Cl)c(Cl)c2)c1 [Example 17, [1,1'-Biphenyl]-2-carboxylic acid, 2'-[[[3-[(3,4-dichlorophenyl)methyl]phenyl]amino]carbonyl]-] | 97% |  |  |  |  |
| 16.5 µM | Cc1ccc(CCc2ccc(NC(=O)c3ccccc3-c3ccccc3C(=O)O)cc2)cc1 [Example 18, [1,1'-Biphenyl]-2-carboxylic acid, 2'-[[[4-[2-(4-methylphenyl)ethyl]phenyl]amino]carbonyl]-] | 98% | 60% |  |  |  |
| 13.7 µM | O=C(O)c1ccccc1-c1ccccc1C(=O)Nc1ccccc1CCc1ccc(Cl)c(Cl)c1 [Example 12, [1,1'-Biphenyl]-2-carboxylic acid, 2'-[[[2-[2-(3,4-dichlorophenyl)ethyl]phenyl]amino]carbonyl]-] | 99% | -42% |  |  |  |
| 3.7 µM | CC(C)(C)c1cc(CCc2ccc(NC(=O)c3ccccc3-c3ccccc3C(=O)O)cc2)cc(C(C)(C)C)c1O [Example 14, [1,1'-Biphenyl]-2-carboxylic acid, 2'-[[[4-[2-[3,5-bis(1,1-dimethylethyl)-4-hydroxyphenyl]ethyl]phenyl]amino]carbonyl]-] | 96% | 41% |  |  |  |
